Where a name gives a salt, the structure may show the parent alone.
What was measured:
Solubility in water = type: physicochemical; details: water at RT
Protocol: Water was progressively added at RT to APO HCl (I) until complete dissolution was reached. Subsequently, the same volume of water was added at RT to the other salts in order to compare their solubility. The mixtures were stirred for 10-15 minutes to allow equilibration. As the salts remained insoluble, the suspensions were diluted with twice the original volume and allowed to equilibrate for another 10-15 minutes at RT.

[1] = In vivo comparative pharmacokinetic and tolerance study, subcutaneous administration; details: rats
Protocol: Apomorphine Hydrochloride (Apo-HCl) was administered subcutaneously to Sprague Dawley rats three times a day for six days (total of eighteen 0.1-mL administrations). Both test items were compared for tolerance and systemic exposure: blood samples were collected from the lateral vein of the tail from all animals on treatment days 1 and 5 at all groups from main animals, samples were analyzed for apomorphine level determination.

[2] = type: physicochemical; details: 40±2° C./75±5% RH, 1 week

SMILES | solubility in water (Solubility in water) | volume of water for dissolution (Solubility in water; 10-15 minutes equilibration) [V] | Apomorphine levels in blood (PK profile) [1] | AUC ([1]; compared with Apo-HCl) | Cmax ([1]; compared with Apo-HCl) | stability [2]
CN1CCc2cccc3c2[C@H]1Cc1ccc(O)c(O)c1-3 [APO HCl (I), Apomorphine hydrochloride] | soluble in water | 54 | rapid decrease of Apomorphine levels |  |  | 
CCCCCCCCCCCCCCCC(=O)O.CCCCCCCCCCCCCCCC(=O)O.CN1CCc2cccc3c2[C@H]1Cc1ccc(O)c(O)c1-3 [Form O, Apo-Palmitic Acid (1:2)] |  |  | Sustained Apomorphine levels | higher than Apo-HCl | lower than Apo-HCl | remained stable
